Experiments:
TYRO3 = target: T1, TYRO3 (Homo sapiens, UniProt Q06418); assay: TR-FRET kinase activity assay, TYRO3; type: biochemical; details: ATP at Km, 60 minutes
T1 sequence (Q06418 41-890): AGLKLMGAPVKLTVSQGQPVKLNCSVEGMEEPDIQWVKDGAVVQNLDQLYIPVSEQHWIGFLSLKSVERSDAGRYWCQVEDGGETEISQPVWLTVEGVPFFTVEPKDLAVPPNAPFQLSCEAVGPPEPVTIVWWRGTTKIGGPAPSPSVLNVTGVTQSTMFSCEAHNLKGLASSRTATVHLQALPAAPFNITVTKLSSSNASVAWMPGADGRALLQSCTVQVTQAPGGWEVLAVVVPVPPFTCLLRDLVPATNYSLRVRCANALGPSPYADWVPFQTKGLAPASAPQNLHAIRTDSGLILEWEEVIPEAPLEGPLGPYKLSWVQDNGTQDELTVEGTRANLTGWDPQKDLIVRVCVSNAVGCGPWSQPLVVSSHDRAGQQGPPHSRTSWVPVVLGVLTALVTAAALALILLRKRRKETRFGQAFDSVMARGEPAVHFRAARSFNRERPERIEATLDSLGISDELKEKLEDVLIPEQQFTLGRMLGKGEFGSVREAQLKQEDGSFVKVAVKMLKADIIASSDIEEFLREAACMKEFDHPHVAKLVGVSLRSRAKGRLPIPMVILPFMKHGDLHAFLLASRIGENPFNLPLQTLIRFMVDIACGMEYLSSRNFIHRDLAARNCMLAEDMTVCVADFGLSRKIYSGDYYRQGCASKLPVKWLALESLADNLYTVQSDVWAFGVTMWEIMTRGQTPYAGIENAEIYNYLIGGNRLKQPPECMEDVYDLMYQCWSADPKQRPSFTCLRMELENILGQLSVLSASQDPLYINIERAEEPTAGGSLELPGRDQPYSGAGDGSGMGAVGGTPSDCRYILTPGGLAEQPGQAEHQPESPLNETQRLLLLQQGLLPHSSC
Outline: (§1)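 Each kinase phosphorylates a fluorescently labeled peptide on tyrosine in the presence of compound, with ATP at its Km, for 60 min at RT in HEPES pH 7.5 buffer with MgCl2, EGTA, Brij 35 and DTT. Product is detected by TR-FRET with a Europium-labeled phospho-specific antibody; IC50 values follow.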

AXL = target: T2, AXL (Homo sapiens, UniProt P30530); assay: TR-FRET kinase activity assay, AXL; type: biochemical; details: ATP at Km, 60 minutes
T2 sequence (P30530 26-894): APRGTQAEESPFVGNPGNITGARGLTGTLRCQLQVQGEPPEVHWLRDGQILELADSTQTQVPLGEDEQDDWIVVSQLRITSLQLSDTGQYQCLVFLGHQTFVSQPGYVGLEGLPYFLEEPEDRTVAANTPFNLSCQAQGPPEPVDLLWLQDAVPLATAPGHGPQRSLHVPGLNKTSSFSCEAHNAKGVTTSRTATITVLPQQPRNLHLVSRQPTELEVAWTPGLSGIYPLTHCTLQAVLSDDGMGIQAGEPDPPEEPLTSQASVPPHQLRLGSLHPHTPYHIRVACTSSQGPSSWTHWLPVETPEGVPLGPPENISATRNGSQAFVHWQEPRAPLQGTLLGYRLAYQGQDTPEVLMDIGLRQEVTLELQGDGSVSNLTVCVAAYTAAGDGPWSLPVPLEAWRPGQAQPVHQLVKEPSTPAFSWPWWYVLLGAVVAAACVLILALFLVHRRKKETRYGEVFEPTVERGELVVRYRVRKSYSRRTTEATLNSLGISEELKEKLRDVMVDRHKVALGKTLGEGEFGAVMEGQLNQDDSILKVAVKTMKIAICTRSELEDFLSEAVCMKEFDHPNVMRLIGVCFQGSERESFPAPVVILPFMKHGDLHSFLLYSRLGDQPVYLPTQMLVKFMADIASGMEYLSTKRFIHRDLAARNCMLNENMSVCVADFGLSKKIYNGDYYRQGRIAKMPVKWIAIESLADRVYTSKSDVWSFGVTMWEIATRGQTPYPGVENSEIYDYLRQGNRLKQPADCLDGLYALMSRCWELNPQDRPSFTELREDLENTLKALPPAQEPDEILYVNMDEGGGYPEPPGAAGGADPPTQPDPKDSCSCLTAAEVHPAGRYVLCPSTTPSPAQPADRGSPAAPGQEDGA
Outline: as §1

IC50 (TYRO3) | IC50 (AXL) | Structure (SMILES)
≤ 100 nM | 100 to 1000 nM | CCCC(C)Nc1ncc2c(=O)n(C3CCNCC3)cc([C@H]3CC[C@H](O)CC3)c2n1 (some centres unmarked) [Compound 112]
≤ 100 nM | 100 to 1000 nM | CCCCNc1cc2c(cn1)c(=O)n(C1CCN(C)CC1)cc2[C@H]1CC[C@H](O)CC1 [Compound 116]
≤ 100 nM | 100 to 1000 nM | CCCC(C)Nc1ncc2c(=O)n(C3CCN(C)CC3)cc([C@H]3CC[C@H](O)CC3)c2n1 (some centres unmarked) [Compound 117]
≤ 100 nM | 100 to 1000 nM | CC(C)CC(C)Nc1ncc2c(=O)n(C3CCNCC3)cc([C@H]3CC[C@H](O)CC3)c2n1 (some centres unmarked) [Compound 119]
100 to 1000 nM | 1000 to 10000 nM | CS(=O)(=O)N1CC[C@H](Nc2ncc3c(OC4CCOCC4)ncc([C@H]4CC[C@H](O)CC4)c3n2)C1 [Compound 278]
100 to 1000 nM | 1000 to 10000 nM | COC[C@H](C)Nc1ncc2c(OC3CCOCC3)ncc(-c3ccc(N4CCN(C)CC4)cc3)c2n1 [Compound 279]
≤ 100 nM | 100 to 1000 nM | COC[C@H](C)Nc1ncc2c(OC3CCOCC3)ncc(-c3ccc(C4CCN(C)CC4)cc3)c2n1 [Compound 280]
100 to 1000 nM | 1000 to 10000 nM | CCOC[C@H](C)Nc1ncc2c(OC3CCOCC3)ncc([C@H]3CC[C@H](O)CC3)c2n1 [Compound 281]
100 to 1000 nM | 1000 to 10000 nM | CN1CC(Nc2ncc3c(OC4CCOCC4)ncc([C@H]4CC[C@H](O)CC4)c3n2)CC1=O (some centres unmarked) [Compound 282]
≤ 100 nM | ≤ 100 nM | O=C(O)c1ccc(Nc2ncc3c(OC4CCNCC4)ncc([C@H]4CC[C@H](O)CC4)c3n2)cc1 [Compound 283]
100 to 1000 nM | 1000 to 10000 nM | C[C@@H](CCO)Nc1ncc2c(OC3CCOCC3)ncc([C@H]3CC[C@H](O)CC3)c2n1 [Compound 284]
100 to 1000 nM | 1000 to 10000 nM | COC[C@H](C)Nc1cc2c(cn1)c(OC1CCOCC1)ncc2[C@H]1CC[C@H](O)CC1 [Compound 285]
100 to 1000 nM | 100 to 1000 nM | O[C@H]1CC[C@H](c2cnc(OC3CCOCC3)c3cnc(NCCC(F)(F)F)nc32)CC1 [Compound 286]
100 to 1000 nM | 100 to 1000 nM | CC[C@H](C)Nc1ncc2c(O[C@H]3CC[C@](C)(O)CC3)ncc([C@H]3CC[C@H](O)CC3)c2n1 [Compound 287]
≤ 100 nM | 100 to 1000 nM | CC(C)Nc1ncc2c(OC3CCOCC3)ncc(-c3cccc(S(=O)(=O)N(C)C)c3)c2n1 [Compound 288]
100 to 1000 nM | 100 to 1000 nM | COC[C@H](C)Nc1ncc2c(OC3CCN(S(C)(=O)=O)CC3)ncc([C@H]3CC[C@H](O)CC3)c2n1 [Compound 289]
≤ 100 nM | 100 to 1000 nM | CC[C@H](C)Nc1ncc2c(=O)n([C@H]3CC[C@H](N)CC3)cc([C@H]3CC[C@H](O)CC3)c2n1 [Compound 290]
≤ 100 nM | 100 to 1000 nM | CC1(Nc2ncc3c(OC4CCNCC4)ncc([C@H]4CC[C@H](O)CC4)c3n2)CC1 [Compound 291]
100 to 1000 nM | 100 to 1000 nM | C[C@@H](CC#N)Nc1ncc2c(OC3CCOCC3)ncc([C@H]3CC[C@H](O)CC3)c2n1 [Compound 292]
≤ 100 nM | 100 to 1000 nM | COC[C@H](C)Nc1ncc2c(OC3CCOCC3)ncc([C@H]3CC[C@](C)(O)CC3)c2n1 [Compound 293]
100 to 1000 nM | 1000 to 10000 nM | COC[C@H](C)Nc1ncc2c(OC3CCOCC3)ncc([C@H]3CC[C@@](C)(O)CC3)c2n1 [Compound 294]
≤ 100 nM | 100 to 1000 nM | COC[C@H](C)Nc1ncc2c(O[C@H]3C[C@H](O)C3)ncc([C@H]3CC[C@H](O)CC3)c2n1 [Compound 295]

IC50 (TYRO3) | IC50 (AXL) | Structure (SMILES)
≤ 100 nM | 100 to 1000 nM | COC[C@H](C)Nc1ncc2c(O[C@H]3C[C@@H](O)C3)ncc([C@H]3CC[C@H](O)CC3)c2n1 [Compound 296]
100 to 1000 nM | 1000 to 10000 nM | CNC(=O)Nc1ccc(-c2cnc(OC3CCOCC3)c3cnc(N[C@@H](C)COC)nc23)cc1 [Compound 297]
≤ 100 nM | 100 to 1000 nM | CC[C@H](C)Nc1ncc2c(O[C@H]3CC[C@@H](N(C)C)C3)ncc([C@H]3CC[C@H](O)CC3)c2n1 [Compound 298]
≤ 100 nM | ≤ 100 nM | O[C@H]1CC[C@H](c2cnc(OC3CCNCC3)c3cnc(Nc4ccc(Cl)c(Cl)c4)nc32)CC1 [Compound 299]
≤ 100 nM | ≤ 100 nM | CCc1cc(Nc2ncc3c(OC4CCNCC4)ncc([C@H]4CC[C@H](O)CC4)c3n2)ccc1Cl [Compound 300]
100 to 1000 nM | 1000 to 10000 nM | COC[C@H](C)Nc1ncc2c(OC3CCOCC3)ncc(-c3ccc(O)cc3)c2n1 [Compound 301]
100 to 1000 nM | 1000 to 10000 nM | COC[C@H](C)Nc1ncc2c(O[C@H]3CCNCC3(F)F)ncc([C@H]3CC[C@H](O)CC3)c2n1 [Compound 302]
≤ 100 nM | 100 to 1000 nM | COC[C@H](C)Nc1ncc2c(C)ncc([C@H]3CC[C@H](O)CC3)c2n1 [Compound 303]
100 to 1000 nM | 100 to 1000 nM | C[C@@H](CF)Nc1ncc2c(OC3CCOCC3)ncc([C@H]3CC[C@H](O)CC3)c2n1 [Compound 304]
≤ 100 nM | 100 to 1000 nM | C[C@@H](CC(F)(F)F)Nc1ncc2c(OC3CCOCC3)ncc([C@H]3CC[C@H](O)CC3)c2n1 [Compound 305]
100 to 1000 nM | 100 to 1000 nM | CC[C@H](C)Nc1ncc2c(OC3CCN(c4ncccn4)CC3)ncc([C@H]3CC[C@H](O)CC3)c2n1 [Compound 306]
100 to 1000 nM | 1000 to 10000 nM | COC[C@H](C)Nc1ncc2c(OC3CCOCC3)ncc(-c3cccc(S(=O)(=O)N(C)C)c3)c2n1 [Compound 307, (S)-3-(2-((1-methoxypropan-2-yl)amino)-5-((tetrahydro-2H-pyran-4-yl)oxy)pyrido[4,3-d]pyrimidin-8-yl)-N,N-dimethylbenzenesulfonamide]
100 to 1000 nM | 1000 to 10000 nM | COC[C@H](C)Nc1ncc2c(O[C@@H]3CCNCC3(F)F)ncc([C@H]3CC[C@H](O)CC3)c2n1 [Compound 308]
100 to 1000 nM | 1000 to 10000 nM | COC[C@H](C)Nc1ncc2c(OC3CCOCC3)ncc(-c3ccc(N)cc3)c2n1 [Compound 309]
≤ 100 nM | ≤ 100 nM | COCCN1C(C)(C)CC(Oc2ncc([C@H]3CC[C@H](O)CC3)c3nc(N[C@@H](C)COC)ncc23)CC1(C)C [Compound 310]
≤ 100 nM | 100 to 1000 nM | C[C@@H](CCF)Nc1ncc2c(OC3CCOCC3)ncc([C@H]3CC[C@H](O)CC3)c2n1 [Compound 311]
100 to 1000 nM | 1000 to 10000 nM | COCC[C@H](C)Nc1ncc2c(OC3CCOCC3)ncc([C@H]3CC[C@H](O)CC3)c2n1 [Compound 312]
100 to 1000 nM | 100 to 1000 nM | CC(C)Nc1ncc2c(OC3CCOCC3)ncc(-c3cccc(S(C)(=O)=O)c3)c2n1 [Compound 313]
100 to 1000 nM | 1000 to 10000 nM | COC[C@H](C)Nc1ncc2c(OC3CCOCC3)ncc(-c3cnn([C@@H]4CCN(C)C4)c3)c2n1 [Compound 314]
100 to 1000 nM | 1000 to 10000 nM | COC[C@H](C)Nc1ncc2c(OC3CCOCC3)ncc([C@H]3CC[C@H](NC(C)=O)CC3)c2n1 [Compound 315]
≤ 100 nM | 1000 to 10000 nM | COC[C@H](C)Nc1ncc2c(OC3CCOCC3)ncc([C@H]3CC[C@H](NS(C)(=O)=O)CC3)c2n1 [Compound 316]

Source: patent US20200291018A1, “TAM KINASE INHIBITORS” (SYROS PHARMACEUTICALS, INC., priority 2017, published 2020)
